Source: paper PMC10709440, “High-throughput ligand profile characterization in novel cell lines expressing seven heterologous insect olfactory receptors for the detection of volatile plant biomarkers” (Scientific Reports, 2023)

Columns and labels:
[1] = target: T1, Drosophila OR47a (Drosophila melanogaster, UniProt P81921); experiment: Calcium ion fluorescence (GCaMP6) assay, OR47a stable HEK293 cell line; assay type: cell-based; conditions: for Average response / OR47a response (VUAA1-normalized) at 1 μM / OR47a response (VUAA1-normalized) at 10 μM / OR47a response (VUAA1-normalized) at 100 μM: OR47a cell line; for Average response: mean of biological replicates; for OR47a Average response (VUAA1-normalized): 50 μM VUAA1 = 1
T1 construct: expressed in transfected cells
T1 sequence (P81921 1-385): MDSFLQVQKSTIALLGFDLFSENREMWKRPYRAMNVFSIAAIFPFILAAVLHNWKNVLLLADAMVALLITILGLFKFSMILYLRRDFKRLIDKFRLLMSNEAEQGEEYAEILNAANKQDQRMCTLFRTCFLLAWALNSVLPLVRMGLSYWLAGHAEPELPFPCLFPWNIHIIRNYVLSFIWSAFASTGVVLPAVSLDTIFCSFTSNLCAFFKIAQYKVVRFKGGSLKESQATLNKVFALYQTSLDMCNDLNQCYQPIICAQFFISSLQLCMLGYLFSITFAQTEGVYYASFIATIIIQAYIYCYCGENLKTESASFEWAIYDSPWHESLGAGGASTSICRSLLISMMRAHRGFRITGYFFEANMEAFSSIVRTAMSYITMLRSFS
T1 sequence (Q9VNB5 1-486 partner): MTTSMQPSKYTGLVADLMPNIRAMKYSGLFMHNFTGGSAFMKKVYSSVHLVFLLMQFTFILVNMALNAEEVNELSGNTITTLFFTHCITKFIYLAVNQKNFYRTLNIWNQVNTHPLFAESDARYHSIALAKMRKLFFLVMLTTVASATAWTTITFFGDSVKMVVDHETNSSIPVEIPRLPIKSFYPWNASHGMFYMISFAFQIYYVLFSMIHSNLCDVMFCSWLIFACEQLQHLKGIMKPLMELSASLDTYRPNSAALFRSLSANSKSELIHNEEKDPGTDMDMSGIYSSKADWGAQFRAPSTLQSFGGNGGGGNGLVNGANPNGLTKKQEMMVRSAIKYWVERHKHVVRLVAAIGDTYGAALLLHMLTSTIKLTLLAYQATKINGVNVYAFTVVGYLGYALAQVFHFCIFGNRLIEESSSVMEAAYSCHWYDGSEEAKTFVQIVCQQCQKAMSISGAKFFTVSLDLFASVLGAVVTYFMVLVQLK
In short: (§1)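 Responses are VUAA1-normalized ΔF: each VOC-evoked calcium signal, (FMAX−F0)/F0 over 30 s after injection, divided by the same line's mean 50 µM VUAA1 response. Cells were doxycycline-induced HEK293 with GCaMP6 and the cognate Drosophila OR, in HEPES buffer pH 7.3; ligands tested 0.01–100 μM.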

[2] = target: T2, Drosophila OR71a (Drosophila melanogaster, UniProt Q9VUK5); experiment: Calcium ion fluorescence (GCaMP6) assay, OR71a stable HEK293 cell line; assay type: cell-based; conditions: for Average response / OR71a response (VUAA1-normalized) at 1 μM / OR71a response (VUAA1-normalized) at 10 μM / OR71a response (VUAA1-normalized) at 100 μM: OR71a cell line; for Average response: VUAA1-normalized response, mean of biological replicates
T2 construct: expressed in transfected cells
T2 sequence (Q9VUK5 1-378): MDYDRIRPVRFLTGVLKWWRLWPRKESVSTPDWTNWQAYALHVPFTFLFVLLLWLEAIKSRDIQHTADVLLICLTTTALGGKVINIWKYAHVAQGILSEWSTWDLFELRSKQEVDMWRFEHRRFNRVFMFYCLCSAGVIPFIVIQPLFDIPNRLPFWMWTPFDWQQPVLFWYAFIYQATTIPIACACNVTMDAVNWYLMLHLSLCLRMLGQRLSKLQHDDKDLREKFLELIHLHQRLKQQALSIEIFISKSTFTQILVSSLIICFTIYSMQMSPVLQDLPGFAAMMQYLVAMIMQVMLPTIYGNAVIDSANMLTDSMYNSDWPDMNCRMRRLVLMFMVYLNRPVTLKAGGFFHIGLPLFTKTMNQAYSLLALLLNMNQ
T2 sequence (Q9VNB5 1-486 partner): T1 sequence (Q9VNB5 1-486 partner)
In short: as §1

[3] = concentration 1, normalized fluorescence change, values below 0.05 threshold given as 0
[4] = concentration 10, normalized fluorescence change, values below 0.05 threshold given as 0
[5] = concentration 100, normalized fluorescence change, values below 0.05 threshold given as 0
[6] = ligand concentration 1 (unit not given), 0.05 threshold, values below shown as 0
[7] = ligand concentration 10 (unit not given), 0.05 threshold, values below shown as 0
[8] = ligand concentration 100 (unit not given), 0.05 threshold, values below shown as 0
[9] = HEK293, read-out: OR47a response (VUAA1-normalized response)
[10] = ligand concentration 1 (unit not given), threshold 0.05, below shown as 0
[11] = ligand concentration 10 (unit not given), threshold 0.05, below shown as 0
[12] = ligand concentration 100 (unit not given), threshold 0.05, below shown as 0
[13] = HEK293, read-out: OR71a response (VUAA1-normalized response)

In the case of `C=C(C)[C@H]1CC=C(C)CC1` [(R)-(+)-limonene], the Average response ([1]; odorant cc. 1 µM) is reported as 0.05, the Average response ([1]; odorant cc. 10 µM) is reported as 0.0529 and the Average response ([1]; odorant cc. 100 µM) is reported as 0.00. For the same compound, the “OR47a response (VUAA1-normalized response)” value ([1]; VOC concentration 1 μM) was 0.00, the “OR47a response (VUAA1-normalized response)” value ([1]; VOC concentration 10 μM) was 0.0529 and the “OR47a response (VUAA1-normalized response)” value ([1]; VOC concentration 100 μM) was 0.00. For the same compound, the “DF norm AVERAGE OR47a” value [1, 3] was 0, the “DF norm AVERAGE OR47a” value [1, 4] was 0.05286 and the “DF norm AVERAGE OR47a” value [1, 5] was 0. For the same compound, the Average response ([2]; cc. 1 µM) was 0.0368, the Average response ([2]; cc. 10 µM) was 0.00 and the Average response ([2]; cc. 100 µM) was 0.00. For the same compound, the “OR71a response (VUAA1-normalized response)” value ([2]; VOC concentration 1 μM) was 0.00, the “OR71a response (VUAA1-normalized response)” value ([2]; VOC concentration 10 μM) was 0.00 and the “OR71a response (VUAA1-normalized response)” value ([2]; VOC concentration 100 μM) was 0.00. For the same compound, the “DF norm AVERAGE OR71a” value [2, 3] was 0, the “DF norm AVERAGE OR71a” value [2, 4] was 0 and the “DF norm AVERAGE OR71a” value [2, 5] was 0.

Work on `CC1=CCC[C@@]2(C)[C@@H]3CC[C@]12CC3(C)C` [(−)-α-neoclovene] yielded an Average response ([1]; odorant cc. 1 µM) of 0.00, an Average response ([1]; odorant cc. 10 µM) of 0.00 and an Average response ([1]; odorant cc. 100 µM) of 0.018. The “OR47a response (VUAA1-normalized response)” value ([1]; VOC concentration 1 μM) was 0.00, the “OR47a response (VUAA1-normalized response)” value ([1]; VOC concentration 10 μM) was 0.00 and the “OR47a response (VUAA1-normalized response)” value ([1]; VOC concentration 100 μM) was 0.00. For the same compound, the “DF norm AVERAGE OR47a” value [1, 3] was 0, the “DF norm AVERAGE OR47a” value [1, 4] was 0 and the “DF norm AVERAGE OR47a” value [1, 5] was 0. It also gave an Average response ([2]; cc. 1 µM) of 0.00, an Average response ([2]; cc. 10 µM) of 0.00 and an Average response ([2]; cc. 100 µM) of 0.0221. For the same compound, the “OR71a response (VUAA1-normalized response)” value ([2]; VOC concentration 1 μM) was 0.00, the “OR71a response (VUAA1-normalized response)” value ([2]; VOC concentration 10 μM) was 0.00 and the “OR71a response (VUAA1-normalized response)” value ([2]; VOC concentration 100 μM) was 0.00. The “DF norm AVERAGE OR71a” value [2, 3] was 0, the “DF norm AVERAGE OR71a” value [2, 4] was 0 and the “DF norm AVERAGE OR71a” value [2, 5] was 0.

In the case of `CC/C=C\CCO` [E-3-hexenol], the “OR47a response (VUAA1-normalized response)” value ([1]; VOC concentration 1 μM) is reported as 0.06, the “OR47a response (VUAA1-normalized response)” value ([1]; VOC concentration 10 μM) is reported as 0.00 and the “OR47a response (VUAA1-normalized response)” value ([1]; VOC concentration 100 μM) is reported as 0.14. For the same compound, the “OR71a response (VUAA1-normalized response)” value ([2]; VOC concentration 1 μM) was 0.00, the “OR71a response (VUAA1-normalized response)” value ([2]; VOC concentration 10 μM) was 0.00 and the “OR71a response (VUAA1-normalized response)” value ([2]; VOC concentration 100 μM) was 0.00.

In the case of `CC/C=C\CCO` [Z3-hexenol], the “OR47a Average response (VUAA1-normalized)” value ([1]; 1 μM VOC) is reported as 0.03, the “OR47a Average response (VUAA1-normalized)” value ([1]; 10 μM VOC) is reported as 0.06 and the “OR47a Average response (VUAA1-normalized)” value ([1]; 100 μM VOC) is reported as 0.10. It also gave an Average response ([1]; odorant cc. 1 µM) of 0.0266, an Average response ([1]; odorant cc. 10 µM) of 0.0571 and an Average response ([1]; odorant cc. 100 µM) of 0.10. For the same compound, the “DF norm AVERAGE OR47a” value [1, 6] was 0, the “DF norm AVERAGE OR47a” value [1, 7] was 0.0571 and the “DF norm AVERAGE OR47a” value [1, 8] was 0.1005. It also gave an Average response ([2]; cc. 1 µM) of 0.00, an Average response ([2]; cc. 10 µM) of 0.0174 and an Average response ([2]; cc. 100 µM) of 0.00. For the same compound, the “DF norm AVERAGE OR71a” value [2, 6] was 0, the “DF norm AVERAGE OR71a” value [2, 7] was 0 and the “DF norm AVERAGE OR71a” value [2, 8] was 0.

For `CC/C=C\CCO` [Z-3-hexenol], the “OR47a response (VUAA1-normalized) at 1 μM” value ([1]; VOC concentration 1 μM) was 0.00, the “OR47a response (VUAA1-normalized) at 10 μM” value ([1]; VOC concentration 10 μM) was 0.0571 and the “OR47a response (VUAA1-normalized) at 100 μM” value ([1]; VOC concentration 100 μM) was 0.10. The “OR71a response (VUAA1-normalized) at 1 μM” value ([2]; VOC concentration 1 μM) was 0.00, the “OR71a response (VUAA1-normalized) at 10 μM” value ([2]; VOC concentration 10 μM) was 0.00 and the “OR71a response (VUAA1-normalized) at 100 μM” value ([2]; VOC concentration 100 μM) was 0.00.

With `CC/C=C\CCOC(C)=O` [Z-3-hexenyl acetate] the “OR47a response (VUAA1-normalized) at 1 μM” value ([1]; VOC concentration 1 μM) was 0.35, the “OR47a response (VUAA1-normalized) at 10 μM” value ([1]; VOC concentration 10 μM) was 0.67 and the “OR47a response (VUAA1-normalized) at 100 μM” value ([1]; VOC concentration 100 μM) was 0.76. For the same compound, the “OR71a response (VUAA1-normalized) at 1 μM” value ([2]; VOC concentration 1 μM) was 0.00, the “OR71a response (VUAA1-normalized) at 10 μM” value ([2]; VOC concentration 10 μM) was 0.00 and the “OR71a response (VUAA1-normalized) at 100 μM” value ([2]; VOC concentration 100 μM) was 0.00.

For `CC(=O)c1ccccc1` [acetophenone], the activation at 1 µM [1, 9] was 0%, the activation at 10 µM [1, 9] was 0% and the activation at 100 µM [1, 9] was 0%. It also gave an Average response ([1]; odorant cc. 1 µM) of 0.0171, an Average response ([1]; odorant cc. 10 µM) of 0.00 and an Average response ([1]; odorant cc. 100 µM) of 0.0243. For the same compound, the “DF norm AVERAGE OR47a” value [1, 10] was 0, the “DF norm AVERAGE OR47a” value [1, 11] was 0 and the “DF norm AVERAGE OR47a” value [1, 12] was 0. For the same compound, the activation at 1 µM [2, 13] was 0%, the activation at 10 µM [2, 13] was 0% and the activation at 100 µM [2, 13] was 0%. The Average response ([2]; cc. 1 µM) was 0.00, the Average response ([2]; cc. 10 µM) was 0.00 and the Average response ([2]; cc. 100 µM) was 0.00. The “DF norm AVERAGE OR71a” value [2, 10] was 0, the “DF norm AVERAGE OR71a” value [2, 11] was 0 and the “DF norm AVERAGE OR71a” value [2, 12] was 0.
